Values quoted from earlier work in patent publication US20070105758A1 (priority 2005, published 2007).

Conditions: oral route in sensitive individuals

SMILES: NCCc1c[nH]cn1 [histamine]
- histamine concentration known to be biologically active: > 5 nM
